Source: US20090281152A1, “Indole Compounds Having Affinity to the EP1 Receptor” (priority 2006, published 2009)

Tests used:
human EP3 receptor = molecular target: T1, human EP3 receptor (Homo sapiens, UniProt P43115); assay: human EP3 calcium mobilisation assay (FLIPR, CHO-K1 cells); assay type: cell-based; conditions: antagonism of PGE2-induced calcium mobilisation, averages of a number of experiments, read-out: functional pKi (converted)
T1 construct: expressed in transfected cells; host or cells: CHO-K1 cells, pCIN vector
T1 sequence (P43115 1-390): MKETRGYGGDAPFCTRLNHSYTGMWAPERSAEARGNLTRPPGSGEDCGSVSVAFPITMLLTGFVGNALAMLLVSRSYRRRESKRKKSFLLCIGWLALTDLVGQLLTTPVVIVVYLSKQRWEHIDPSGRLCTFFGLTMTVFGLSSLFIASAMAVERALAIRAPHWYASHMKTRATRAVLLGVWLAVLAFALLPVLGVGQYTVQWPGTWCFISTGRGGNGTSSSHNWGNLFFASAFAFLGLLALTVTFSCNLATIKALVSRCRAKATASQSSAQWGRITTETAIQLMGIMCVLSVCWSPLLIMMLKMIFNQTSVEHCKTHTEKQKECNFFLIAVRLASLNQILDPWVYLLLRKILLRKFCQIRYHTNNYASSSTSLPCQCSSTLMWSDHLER
Method: Briefly, the antagonist properties of compounds are assessed by their ability to inhibit the mobilisation of intracellular calcium ([Ca^2+]i) in response to activation of EP1 or EP3 receptors by the natural agonist hormone prostaglandin E2 (PGE2). Increasing concentrations of antagonist reduce the amount of calcium that a given concentration of PGE2 can mobilise. The net effect is to displace the PGE2 concentration-effect curve to higher concentrations of PGE2. The amount of calcium produced is assessed using a calcium-sensitive fluorescent dye such as Fluo-4, AM and a suitable instrument such as a Fluorimetric Imaging Plate Reader (FLIPR). Increasing amounts of [Ca^2+]i produced by receptor activation increase the amount of fluorescence produced by the dye and give rise to an increasing signal. The signal may be detected using the FLIPR instrument and the data generated may be analysed with suitable curve-fitting software.
The human EP1 or EP3 calcium mobilisation assay (hereafter referred to as ‘the calcium assay’) utilises Chinese hamster ovary-K1 (CHO-K1) cells into which a stable (pCIN; BioTechniques 20 (1996): 102-110) vector containing either EP1 or EP3 cDNA has previously been transfected. Cells are cultured in suitable flasks containing culture medium such as DMEM:F-12 supplemented with 10% v/v foetal calf serum, 2 mM L-glutamine, 0.25 mg/ml geneticin, 100 μM flurbiprofen and 10 μg/ml puromycin.
For assay, cells are harvested using a proprietary reagent that dislodges cells such as Versene. Cells are re-suspended in a suitable quantity of fresh culture media for introduction into a 384-well plate. Following incubation for 24 hours at 37° C. the culture media is replaced with a medium containing Fluo-4 and the detergent pluronic acid, and a further incubation takes place. Concentrations of compounds are then added to the plate in order to construct concentration-effect curves. This may be performed on the FLIPR in order to assess the agonist properties of the compounds. […]
The data so generated may be analysed by means of a computerised curve-fitting routine. […]

[1] = tested on: rodent model of post-operative pain; conditions: Anesthesia and Analgesia 2001, 92, 233-238; cited from earlier work
[2] = tested on: rat model of chronic constriction injury; conditions: Anesthesia and Analgesia 2001, 93, 1012-7; cited from earlier work

Ki (human EP3 receptor) [nM]	SMILES	mechanical hyperalgesia [1]	hyperalgesia and allodynia [2]
≥ 1000	CC(C)Cn1cc(-c2nc(C(=O)O)cs2)c2cc(Cl)ccc21 [Example 7, 2-[5-Chloro-1-(2-methylpropyl)-1H-indol-3-yl]-1,3-thiazole-4-carboxylic acid]		
≥ 1000	CC(C)Cn1cc(-c2nc(C(=O)O)co2)c2cc(Cl)ccc21 [Example 8, 2-[5-Chloro-1-(2-methylpropyl)-1H-indol-3-yl]-1,3-oxazole-4-carboxylic acid]		
> 316	Cc1ccc2c(c1)c(-c1nc(C(=O)NS(=O)(=O)c3ccccc3)co1)cn2CC(C)C [Example 10, 2-[5-Methyl-1-(2-methylpropyl)-1H-indol-3-yl]-N-(phenylsulfonyl)-1,3-oxazole-4-carboxamide]		
	Cc1cc(Cl)ccc1S(=O)(=O)NC[C@H]1C2CCC(CC2)[C@@H]1/C=C\CCCC(=O)O [ONO-8711]	inhibits mechanical hyperalgesia	reduces hyperalgesia and allodynia
